Assay results: patent US20190322638A1, “DIPYRIDYL ALKALOID, PREPARATION METHOD THEREFOR AND USE THEREOF” (OCEAN UNIVERSITY OF CHINA, priority 2016, published 2019)
Like-named read-outs stand apart in the source and are kept apart here.

Assays:
[1] = Toxicity to normal cells, MTT method; format: cell-based; settings: human, L-02 cell line
Experimental: (§1) Cell lines and subculture of cells: The following five tumor cell lines were used for activity test human colon cancer cell lines (HCT-116 cells), human hepatoma cell lines (HepG2 cells), human breast cancer cell lines (MCF-7 cells), cervical cancer cell lines (Hela cells), human peripheral blood leukemia T cell lines (Jurkat cells), and human normal liver cell lines (L-02 cells), of which MCF-7, HepG2, Hela, and L-02 cell lines were tested using the MTT model; HCT-116 cell lines were tested using the SRB model. All of the cells were subcultured in a 10% FBS-containing RPMI-1640 medium in an incubator charged with 5% carbon dioxide at 37° C.
(§2) MTT method: Dehydrogenase in mitochondria in live cells was capable of metabolizing yellow bromized 3-(4,5-dimethylthiazole)-2,5-diphenyltetrazolium into ianthinus water-insoluble formazan, and an amount of formazan could be determined by measuring the absorbance thereof with a microplate reader. Since the amount of formazan was directly proportional to the number of live cells, the number of live cells could be determined from the absorbance to learn about the drug's capability of inhibiting or killing tumor cells. […] The cell suspension was inoculated to a 96-well plate at 100 μL per well, and cultured at 37° C. for 24 hours. Thereafter, 100 μL of the sample solutions at different concentrations were added to respective wells and continued to be cultured for 72 hours. Then, 20 μL of MTT-containing IPMI-1640 solution ([…]) was added. After further cultivation for 4 hours, the culture solutions were slowly decanted and 150 μL of DMSO was added to dissolve the formazan, and the absorbance was measured at a wavelength of 540 nm. […] The half inhibitory concentration against cancer cells (IC50) and the half inhibitory concentration against normal cells (CC50) were determined.

[2] = test system: human colon cancer cell lines (HCT-116 cells); experiment: In vitro antitumor activity, SRB method; format: cell-based; settings: for SI = CC50 (normal cell line L-02)/IC50 (tumor cell line): HCT-116 cell line vs L-02; for IC50: Homo sapiens, read-out: Cytotoxic Activity IC50
Experimental: as §1
SRB method: According to the cell growth rate, tumor cells at the logarithmic phase (medium: RPMI-1640 medium containing 10% newborn fetal bovine serum (FBS); cell density: 3×10^4 cells/mL) were inoculated into a 96-well culture plate at 180 μL/well, and subjected to adherent growth for 24 hours at 37° C. under 5% CO2. Subsequently, a test sample was added at 20 μL/well, and four duplicated wells were provided at each concentration. […] The culture solution was decanted, and the cells were fixed with 10% cold trichloroacetic acid (TCA), allowed to stand at 4° C. for 1 hour, and then washed 5 times with distilled water and dried in the air. Thereafter, 100 μL/well of a 4 mg/ml solution of sulforhodamine B (SRB, Sigma) formulated by 1% glacial acetic acid was added, and the mixture was stained at a room temperature for 15 minutes, and the supernatant was removed, washed 5 times with 1% acetic acid, and dried in the air. Finally, 150 μL/well of Tris solution was added, and the absorbance (OD value) was measured with a microplate reader at a wavelength of 540 nm. […] The half inhibitory concentration against cancer cells (IC50) was determined.
(§3) Selection Index (SI) is the ratio of the CC50 value of a test sample inhibiting the growth of normal cell lines to the IC50 value of the test sample inhibiting tumor cell proliferation, which reflects the selectivity and safety of the sample.
(§4) SI=CC50(normal cell line L-02)/IC50(tumor cell line) Equation: […]

[3] = test system: colon cancer HCT-116 transplantation tumors; experiment: In vivo antitumor test on transplantation tumors in nude mice; parameters: species or system BALB/C (nu/nu) nude mice; settings: HCT-116, 14 days, Docetaxel 5 mg/kg intravenously every other day, Compound 2 7.5 mg/kg intraperitoneally daily; for Tumor Weight: X ± S; for Inhibition Rate % (tumor inhibition rate): vs negative control
Experimental: An in vivo antitumor test for Compound 2 was conducted on in vivo transplantation tumors from nude mice experiencing colon cancer HCT-116.
Laboratory mice: BALB/C, (nu/nu) nude mice, from 18 to 20 g in weight, male; purchased from BEIJING HFK BIOSCIENCE Co., LTD.; License No.: SCXK (Jing)-2014-0004.
Positive drug: Docetaxel, dissolved with Tween DMSO as a solvent and formulated into 9 mg/mL solution for service; diluted with normal saline.
Test drug: Compound 2, 10 mg/mL of stock solution being dissolved with DMSO, diluted with normal saline till the concentration was 0.75 mg/mL, and the administration volume was 0.1 mL/10 g body weight.
(§5) A cell suspension of human colon cancer cell line HCT-116 at a concentration of 30 million/mL was formulated in a 5 A medium containing 10% fetal bovine serum. After conventional disinfection, the cell suspension was inoculated subcutaneously into the armpits of the right forelimbs of the mice at a dose of 0.2 ml for each. The mice were not administered until the tumors had grown to an average volume of about 100 mm^3. Positive drugs, compounds, and negative control groups were arranged. The dosages were 5 mg/kg of Docetaxel (positive), and 7.5 mg/kg of Compound 2. Routes of administration were as follows: Docetaxel was intravenously administered every other day; Compound 2 was intraperitoneally injected daily; the negative control group was intraperitoneally injected with isometric normal saline. The mice were administered for 14 days, during which the mice were weighed daily and the variation trends of body weights of the mice were calculated. The mice were killed 24 hours after the last administration. Their tumor tissues were dissected, the tumor mass was weighed, and the tumor inhibition rate was calculated. The equation for calculating the tumor inhibition rate was as follows: […]
(§6) Statistical analysis: The SPSS 13.0 statistical software was used for data processing. The resulting data were marked with X±S. The data from each group were analyzed by t test, and the P value was used to indicate difference between groups.

[4] = Spleen index, body weight and behavioral observation of mice in the in vivo antitumor test; parameters: species or system BALB/C (nu/nu) nude mice; settings: nude mice; for effect on body weight of the mice / effect on spleen index of mice (in words): 14 days administration; for Spleen Index (100 × spleen mass/body mass): 14 days, Docetaxel (10 mg/kg as printed in Table 11), Compound 2 7.5 mg/kg
Experimental: as §5, with “The dosages were 5 mg/kg of Docetaxel (positive), and 7.5 mg/kg of Compound 2.” left out
In the meantime, the spleens were removed from the mice, and the capsules were peeled off. The mass of the spleens of the mice was recorded respectively, and the spleen indices were calculated by the following equation:
spleen index=100×spleen mass/body mass.
as §6

[5] = test system: cervical cancer cell lines (Hela cells); experiment: In vitro antitumor activity, MTT method; format: cell-based; settings: for SI = CC50 (normal cell line L-02)/IC50 (tumor cell line): Hela cell line vs L-02; for IC50: Homo sapiens, read-out: Cytotoxic Activity IC50
Experimental: as §1, §2, §3, §4

[6] = test system: human hepatoma cell lines (HepG2 cells); experiment: In vitro antitumor activity, MTT method; format: cell-based; settings: for SI = CC50 (normal cell line L-02)/IC50 (tumor cell line): HepG2 cell line vs L-02; for IC50: Homo sapiens, read-out: Cytotoxic Activity IC50
Experimental: as §1, §2, §3, §4

[7] = test system: human peripheral blood leukemia T cell lines (Jurkat cells); experiment: In vitro antitumor activity, Jurkat cells; format: cell-based; settings: for IC50: Homo sapiens, read-out: Cytotoxic Activity IC50; for SI = CC50 (normal cell line L-02)/IC50 (tumor cell line): Jurkat cell line vs L-02
Experimental: as §1, §3, §4

[8] = test system: human breast cancer cell lines (MCF-7 cells); experiment: In vitro antitumor activity, MTT method; format: cell-based; settings: for IC50: Homo sapiens, read-out: Cytotoxic Activity IC50; for SI = CC50 (normal cell line L-02)/IC50 (tumor cell line): MCF-7 cell line vs L-02
Experimental: as §1, §2, §3, §4

[9] = HCT-116 cell line, SRB, 72 hours

SMILES | SI = CC50 (normal cell line L-02)/IC50 (tumor cell line) [2] | CC50 at 72 h ([1]; L-02 normal liver cells) | IC50 [2, 9] | SI = CC50 (normal cell line L-02)/IC50 (tumor cell line) [5] | IC50 ([5]; Hela cell line, MTT, 72 hours) | SI = CC50 (normal cell line L-02)/IC50 (tumor cell line) [6] | IC50 ([7]; Jurkat cell line) | SI = CC50 (normal cell line L-02)/IC50 (tumor cell line) [7] | also measured
COc1cc(/C=N/O)nc(-c2ccccn2)c1O [Compound 4] | 1.2 | – | – | – | – | – | – | – | CC50 at 72 h [1]: 1.7 µM; IC50 ([2]; HCT-116, 72 h): 1.4 µM
CC(=O)O[C@@]12CO[C@@H]1C[C@H](O)[C@@]1(C)C(=O)[C@H](O)C3=C(C)[C@@H](OC(=O)[C@H](O)[C@@H](NC(=O)OC(C)(C)C)c4ccccc4)C[C@@](O)([C@@H](OC(=O)c4ccccc4)[C@H]21)C3(C)C [Docetaxel, reference compound] | – | – | – | – | – | – | – | – | Tumor Weight [3]: 0.13 ± 0.07 g; Inhibition Rate % (tumor inhibition rate) [3]: 87.39%; effect on body weight of the mice [4]: decreased; effect on spleen index of mice (in words) [4]: decreased; Spleen Index (100 × spleen mass/body mass) [4]: 0.25 ± 0.11
C[C@@H]1O[C@@H](Oc2cc(/C=N/O)nc(-c3ccccn3)c2)[C@H](O)[C@H](O)[C@H]1O [Compound 1] | 40.4 | 28.3 µM | 0.7 µM | 3.1 | 9 µM | 10.5 | 10.8 µM | 2.6 | IC50 ([6]; HepG2 cell line, MTT, 72 hours): 2.7 µM
C[C@H]1O[C@H](Oc2cc(/C=N/O)nc(-c3ccccn3)c2)[C@H](O)[C@@H](O)[C@@H]1O [Compound 7] | 27.0 | 59.5 µM | 2.2 µM | 23.8 | 2.5 µM | 6.0 | 1.3 µM | 45.8 | IC50 ([6]; HepG2 cell line, MTT, 72 hours): 10 µM
COc1cc(C=O)nc(-c2ccccn2)c1 [Compound 6] | 5.2 | 31.4 µM | 6 µM | 1.6 | 19.3 µM | – | 14.5 µM | 2.2 | IC50 ([8]; MCF7, MCF-7 cell line, MTT, 72 hours): 12 µM; SI = CC50 (normal cell line L-02)/IC50 (tumor cell line) [8]: 2.6
COc1cc(/C=N/O)nc(-c2ccccn2)c1 [Compound 2] | 13.0 | – | – | 39 | – | 19.5 | – | 19.5 | CC50 at 72 h [1]: 3.9 µM; IC50 ([2]; HCT-116, 72 h): 0.3 µM; IC50 ([5]; HeLa, 72 h): 0.1 µM; IC50 ([8]; MCF7, 72 h): 1 µM; SI = CC50 (normal cell line L-02)/IC50 (tumor cell line) [8]: 3.9; IC50 ([6]; HepG2, 72 h): 0.2 µM; IC50 ([7]; Jurkat): 0.2 µM; Tumor Weight [3]: 0.59 ± 0.33 g; Inhibition Rate % (tumor inhibition rate) [3]: 42.46%; effect on body weight of the mice [4]: not adversely affected; effect on spleen index of mice (in words) [4]: no effect; Spleen Index (100 × spleen mass/body mass) [4]: 0.45 ± 0.09; behavioral observation: adverse effects ([4]; within 14 days after administration, 7.5 mg/kg intraperitoneally daily): no obvious adverse effects such as allergy were observed
COc1cc(/C=N/O)nc(-c2ccc(F)cn2)c1 [Compound 5] | – | 7.5 µM | – | 1.7 | 4.4 µM | – | – | – | –
